≈ marks a conversion by molar mass, not a printed value. Where two headings read alike, the source gives them in different places. Non-standard residues stand in square brackets, D forms with d. Residues, ends and D or L forms follow the SMILES beside them. Tle = CC(C)(C)[C@H](N)C(=O)O; Orn = NCCC[C@H](N)C(=O)O
How the values were obtained:
[1] = tested on: bacterial proteases (E. coli BL21 A1 lysate); assay: Stability against bacterial proteases in E. coli lysate; assay type: in vitro ADME; conditions: E. coli lysate with 0.5 mg/mL protein concentration, 37° C.
Experimental: (§1) For the bacterial lysate, 500 mL of nutrient broth (Carl Roth GmbH+Co. KG, Karlsruhe) was inoculated with E. coli BL21 A1 and incubated overnight at 37° C. 2×250 mL bacterial suspension were centrifuged for 25 min at 5000 rpm and 4° C. in a Beckman Avanti™ J-20-XP centrifuge with JLA-10.500 rotor (Beckman Coulter, Fullerton, U.S.A.). The pellets were each suspended in 30 mL PBS (pH 7.4) and centrifuged again in a Beckman Allegra™ 2IR centrifuge (Beckman Coulter, Fullerton, U.S.A.). The pellets were each suspended in 10 mL PBS and were disrupted with ultrasound (Vibra-cell™ microtip, Fisher Bioblock Scientific, Illkirch, France) 2×5 min (750 W; amplitude 40%; 2 s on/3 s off) on ice. The bacterial lysates were combined and 1 mL aliquots were centrifuged at 15400 rpm for 20 min at 4° C. (Beckman Allegra™). The supernatants were removed and stored at −20° C. The protein content of the bacterial lysate was determined by protein determination according to Bradford.
(§2) A solution of 0.15 μg/mL peptide in bacterial lysate with protein content of 1.5 mg/mL or 0.5 mg/mL was incubated at 37° C. After 0, 30, 60, 120, 240 or 360 min, 200 μL was taken from each and the proteins were precipitated with 50 μL of 15% trichloroacetic acid. Then it was incubated for 10 min at 4° C. and then centrifuged for 5 min at 13000 rpm in a Minispin desktop centrifuge. 210 μL was taken from the supernatant and neutralized with 1 mol/L sodium hydroxide solution. The intact peptide and the degradation products were analyzed by HPLC. 60 μL of 3% aqueous acetonitrile with 0.1% trifluoroacetic acid (TFA) was added to the solution and 250 μL of the mixture was injected. After chromatographic separation, the constituents were identified by MALDI-TOF-MS,
(§3) In order to investigate the stability against bacterial proteases, a lysate was prepared from an overnight culture of E. coli BL21 A1 and the peptides were incubated in it. Using Bradford protein determination, the protein concentration was adjusted to 0.5 or 1.5 mg/mL.

[2] = tested on: Escherichia coli DSM 10233
Experimental: (§4) The minimum inhibitory concentrations (MIC) of the antimicrobial peptides and peptide derivatives were determined in microdilution assays. These used a continuous peptide dilution in sterile flat-bottomed 96-well microtiter plates (polystyrene, Greiner Bio-One GmbH, Frickenhausen, Germany) and a total volume of 100 μL per well. The aqueous peptide or peptidomimetic solutions were diluted with 1% TSB water, to obtain a final concentration of 256 μg/mL. 50 μL of the peptide or peptidomimetic solution was pipetted into the first well of each series and stirred. From this solution, 50 μL was transferred to the second well, stirred and again 50 μL was transferred to the next well, and so on. A double dilution series is obtained, beginning at 256 μg/mL in the first well to 125 ng/mL in the twelfth well. The bacteria, e.g. E. coli BL21 A1, were cultured overnight at 37° C. in nutrient broth (NB, Carl Roth GmbH+Co. KG, Karlsruhe, Germany). 50 μL of a 5×10^6 bacteria/mL suspension in 1% TSB was added to each well of the microtiter plate and thus a final concentration of the peptides or peptidomimetics from 128 μg/mL (well 1) to 62.5 ng/mL (well 12) was established in each series. The plates were incubated at 37° C. for 20 h and then the absorption was measured at 595 nm with a TECAN microtiter plate spectrophotometer (Tecan Trading AG, Mannedorf, Switzerland). The MIC values of all peptides and peptidomimetics were determined in triplicate. Sterile water was used as negative control.
(§5) The peptides shown in Table 8 were investigated for their MIC against pathogenic bacteria such as E. coli DSM 10233, K. pneumoniae DSM 681 and P. aeruginosa DSM 3227.

[3] = tested on: Pseudomonas aeruginosa DSM 3227
Experimental: as §4, §5

[4] = tested on: Klebsiella pneumoniae DSM 681
Experimental: as §4, §5

[5] = 25% aqueous mouse serum, 37° C., 75 μg/mL peptide
[6] = mouse, serum
Experimental: For this, the peptides and peptidomimetics were dissolved in water, mouse serum was added and the peptide concentration was adjusted to 75 μg/mL. While shaking continuously, the mixture was incubated at 37° C. After 0, 30, 60, 120, 240 and 360 minutes, in each case an aliquot was taken and mixed with 15% aqueous trichloroacetic acid (Carl Roth GmbH & Co. KG; Karlsruhe, Germany). After incubation on ice for a further 10 minutes, the precipitated serum proteins were centrifuged off (5 min, 13400 rpm, MiniSpin, Eppendorf AG, Hamburg, Germany). The supernatant was removed, neutralized with 1 mol/L aqueous sodium hydroxide solution (Fluke Chemie GmbH, Buchs, Switzerland) and stored at −20° C. until analysis.
The supernatants were analyzed by RP-HPLC with a linear acetonitrile gradient (Biosolve BV, Valkenswaard, The Netherlands) in the presence of 0.1% trifluoroacetic acid (TFA, UV-grade, Fluka Chemie GmbH, Buchs, Switzerland) as ion-pairing reagent. The fractions were co-crystallized with α-cyanohydroxycinnamic acid (Bruker Daltonik GmbH; Bremen, Germany) as matrix (5.3 mg/mL in 50% acetonitrile in 0.1% aqueous TFA) and were analyzed with a tandem mass spectrometer (MALDI-TOF/TOF-MS, 4700 Proteomics Analyzer; Applied Biosystems GmbH, Weiterstadt, Germany) in the positive-ion reflector mode. The proportion of intact peptides and their degradation products or metabolites could thus be identified and quantified at the individual time points. The control used was 25% aqueous mouse serum, which was analyzed in parallel for the same time intervals.

M. luteus 10240 = assay: Growth inhibition assay (microdilution MIC); assay type: cell-based, Micrococcus luteus; conditions: 10240, 20 h
Method in brief: (§6)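 Broth microdilution in 1% TSB with twofold peptide series, final 128 μg/mL to 62.5 ng/mL, against 5×10^6 bacteria/mL stock suspension added 1:1. Incubated 20 h at 37 °C, growth read by absorbance at 595 nm; MIC is the lowest concentration with no growth, determined in triplicate.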

[7] = Stability against bacterial proteases in E. coli lysate; assay type: in vitro ADME; conditions: E. coli BL21 A1 lysate (bacterial proteases), pH 7.4; E. coli lysate with 0.5 mg/mL protein concentration; read-out: percentage printed under half-life >240 min (peptide remaining)
Experimental: as §1, §2, §3

E. coli BL21 A1 = assay type: cell-based, Escherichia coli; conditions: BL21, 20 h
Method in brief: as §6

[8] = tested on: S. typhimurium s5 (J. Weiser); conditions: ¼ Muller-Hinton medium
Experimental: as §4
(§7) The tests were in this case carried out in Mueller-Hinton medium (¼ concentrated), which is equivalent to 1% TSB.

P. mirabilis ATCC 7002 = conditions: ¼ Muller-Hinton medium
Experimental: as §4, §7

E. coli 045-849 SENTRY = conditions: ¼ Muller-Hinton medium
Experimental: as §4, §7

P. aeruginosa 39324 = tested on: P. aeruginosa 39324
Experimental: as §4, §7

E. coli D31 J. Wilson = conditions: ¼ Muller-Hinton medium
Experimental: as §4, §7

E. coli ATCC BAA-457 = conditions: ¼ Muller-Hinton medium
Experimental: as §4, §7

[9] = tested on: K. pneumoniae K6 ATCC 700603; conditions: ATCC 700603
Experimental: as §4, §7

[10] = tested on: S. typhimurium ATCC 700408
Experimental: as §4, §7

[11] = tested on: P. aeruginosa 10 J. Wilson
Experimental: as §4, §7

K. pneumoniae ATCC 27799 = conditions: ATCC 27799
Experimental: as §4, §7

K. pneumoniae 012-3131 = tested on: K. pneumoniae 012-3131
Experimental: as §4, §7

[12] = tested on: S. typhimurium ATCC 14028
Experimental: as §4, §7

S. saprophyticus 15305 = tested on: S. saprophyticus 15305
Experimental: as §4, §7

P. vulgaris ATCC 6896 = conditions: ¼ Muller-Hinton medium
Experimental: as §4, §7
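Throughout, for Half-life in 25% mouse serum: intact peptide left at successive time points measured by reversed-phase HPLC with an acetonitrile gradient in the supernatant after precipitation of serum proteins.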

| Compound | Half-life in E. coli lysate [1] [h] | half-life [6] [h] | MIC E. coli BL21 A1 (E. coli BL21 A1) [µg/mL] | MIC S. typhimurium s5 (J. Weiser) [8] [µg/mL] | MIC P. mirabilis ATCC 7002 (P. mirabilis ATCC 7002) | MIC E. coli 045-849 SENTRY (E. coli 045-849 SENTRY) [µg/mL] | MIC P. aeruginosa 39324 (P. aeruginosa 39324) [µg/mL] | MIC E. coli D31 J. Wilson (E. coli D31 J. Wilson) [µg/mL] | MIC E. coli SEQ 102ATCC # BAA-4 57 (E. coli ATCC BAA-457) [µg/mL] | MIC K. pneumoniae K6 ATCC 700603 [9] [µg/mL] | MIC S. typhimurium ATCC 700408 [10] [µg/mL] | MIC P. aeruginosa 10 J. Wilson [11] [µg/mL] | MIC K. pneumoniae ATCC 27799 (K. pneumoniae ATCC 27799) [µg/mL] | MIC K. pneumoniae 012-3131 (K. pneumoniae 012-3131) [µg/mL] | MIC S. typhimurium ATCC 14028 [12] [µg/mL] | MIC P. vulgaris ATCC 6896 (P. vulgaris ATCC 6896) | other results |
| --- | --- | --- | --- | --- | --- | --- | --- | --- | --- | --- | --- | --- | --- | --- | --- | --- | --- |
| CC[C@H](C)[C@H](NC(=O)[C@H](CCCN)NC(=O)[C@H](CCCNC(=N)N)NC(=O)[C@@H]1CCCN1C(=O)[C@@H]1CCCN1C(=O)[C@H](CCCNC(=N)N)NC(=O)[C@@H]1CCCN1C(=O)[C@H](CCCNC(=N)N)NC(=O)[C@@H]1CCCN1C(=O)[C@H](CC(C)C)NC(=O)[C@H](Cc1ccc(O)cc1)NC(=O)[C@@H]1CCCN1C(=O)[C@@H]1CCCN1C(=O)[C@H](CCCCN)NC(=O)[C@H](CC(=O)O)NC(=O)[C@@H](N)C(C)C)C(=O)N[C@@H](Cc1ccc(O)cc1)C(=O)N[C@@H](CC(N)=O)C(=O)N[C@@H](CCCN)C(N)=O [compound 72] (H-VDKPPYLPRPRPPR[Orn]IYN[Orn]-NH2) | 2.08 | 2.92 |  |  |  |  |  |  |  |  |  |  |  |  |  |  | MIC E. coli DSM 10233 [2]: 32 µg/mL (≈ 13.9 µM); MIC P. aeruginosa DSM 3227 [3]: >32 µg/mL; MIC K. pneumoniae DSM 681 [4]: 4 µg/mL (≈ 1.73 µM); Half-life in 25% mouse serum [5]: >6 h |
| CC(C)C[C@H](NC(=O)[C@H](Cc1ccc(O)cc1)NC(=O)[C@@H]1CCCN1C(=O)[C@@H]1CCCN1C(=O)[C@H](CCCCN)NC(=O)[C@H](CC(=O)O)NC(=O)[C@@H](N)C(C)C)C(=O)N1CCC[C@H]1C(=O)N[C@@H](CCCNC(=N)N)C(=O)N1CCC[C@H]1C(=O)N[C@@H](CCCNC(=N)N)C(=O)N1CCC[C@H]1C(=O)N1CCC[C@H]1C(=O)N[C@@H](CCCNC(=N)N)C(=O)N[C@@H](CCCN)C(=O)N[C@H](C(=O)N[C@@H](Cc1ccc(O)cc1)C(=O)N[C@@H](CC(N)=O)C(=O)N[C@@H](CCCN)C(N)=O)C(C)(C)C [compound 109] (H-VDKPPYLPRPRPPR[Orn][Tle]YN[Orn]-NH2) | >4 | 2.17 | 4 (≈ 1.73 µM) |  |  |  |  |  |  |  |  |  |  |  |  |  | MIC M. luteus 10240 (M. luteus 10240): 4 µg/mL (≈ 1.73 µM); remaining at 4 h, 0.15 μg/mL [7]: 90% |
| H-GKPRPYSPRPTSHPRPIRV-OH [compound 89] |  |  | 4 | 1 | > | 2 | 32 | 4 | 2 | 8 | 0.5 | 16 | 8 | 4 | 8 | > | MIC S. saprophyticus 15305 (S. saprophyticus 15305; 15305): >64 µg/mL |
| H-GNNRPVYIPQPRPPHPRL-OH [compound 87] |  |  | 2 | 0.5 | > | 0.5 | 64 | 1 | 1 | 16 | 0.13 | 32 | 4 | 16 | 0.5 | > | MIC S. saprophyticus 15305 (S. saprophyticus 15305; ¼ Muller-Hinton medium): > |

Reference: patent US8686113B2 (priority 2009, dated 2014)
